Earlier results in patent publication US20090082464A1, “EXTERNALLY MASKED NEOPENTYL SULFONYL ESTER CYCLIZATION RELEASE PRODRUGS OF ACAMPROSATE, COMPOSITIONS THEREOF, AND METHODS OF USE” (priority 2007, published 2009).

What was measured:
[1] = tested on: cocaine conditioned mice; details: 100 mg/kg for 3 days

## CC(=O)NCCCS(=O)(=O)O [acamprosate, 3-(Acetylamino)propylsulfonic acid]
Doses of about 1-2 gm per day
  steady-state plasma concentration: 370 to 640 ng/mL
  time post-dose at which steady-state plasma concentration occurs: 3 to 8 h
humans, oral
  oral bioavailability of acamprosate: about 11%
[1]
  relapse-like behavior: attenuated relapse-like behavior
